Measurements: patent publication US10501414B2, “Indole analogs as 5-oxo-ETE receptor antagonists and method of use thereof” (THE ROYAL INSTITUTION FOR THE ADVANCEMENT OF …, priority 2015, dated 2019)
“Also recorded” adds a separate entry of the source. Read-outs that look alike come from different tables or passages of the source.

Experiments:
[1] = molecular target: T1, OXE receptor (Homo sapiens, UniProt Q8TDS5); assay: Calcium mobilization in human granulocytes (inhibition of 5-oxo-ETE-induced calcium mobilization); assay type: cell-based; conditions: for times less potent than compound V230 in blocking 5-oxo-ETE-induced calcium mobilization in neutrophils: relative to V230
T1 construct: Human granulocytes (≥95% neutrophils) are prepared from whole blood; endogenous in cells; host or cells: human granulocytes (≥95% neutrophils) from whole blood
T1 sequence (Q8TDS5 whole entry): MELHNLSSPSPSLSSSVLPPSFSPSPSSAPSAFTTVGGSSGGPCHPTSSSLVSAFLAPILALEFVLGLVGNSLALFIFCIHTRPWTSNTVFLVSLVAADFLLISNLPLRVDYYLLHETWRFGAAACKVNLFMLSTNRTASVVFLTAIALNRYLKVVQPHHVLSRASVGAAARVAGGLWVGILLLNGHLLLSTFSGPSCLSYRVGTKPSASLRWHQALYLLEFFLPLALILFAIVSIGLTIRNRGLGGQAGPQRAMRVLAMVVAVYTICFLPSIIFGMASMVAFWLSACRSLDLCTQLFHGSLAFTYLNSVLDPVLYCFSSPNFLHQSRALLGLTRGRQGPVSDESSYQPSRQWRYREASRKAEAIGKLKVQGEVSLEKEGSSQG
Description: Evaluation of Antagonist Activity: Calcium Mobilization in Human Granulocytes
Human granulocytes (≥95% neutrophils) are prepared from whole blood using Dextran 500 to remove red blood cells, followed by centrifugation over Ficoll-Paque to remove mononuclear cells and hypotonic lysis of any remaining red blood cells. After centrifugation the granulocytes are suspended in Ca^++/Mg^++-free phosphate-buffered saline (PBS^−). Granulocytes (10^7 cells/ml) are incubated with the acetoxymethyl ester of indo-1 (1 μM) for 30 min, followed by washing twice with PBS^− and resuspension in the same medium to obtain a final cell concentration of 3.22×10^6 cells/ml. Five minutes prior to commencing data acquisition, Ca^++ and Mg^++ are added to give final concentrations of 1.8 and 1 mM, respectively. Calcium measurements are performed at 37° C. using a spectrofluorometer equipped with a temperature-controlled cuvette holder and a magnetic stirrer. The excitation and emission wavelengths are 331 nm and 410 nm, respectively. Following stabilization of the baseline, fluorescence is measured for 1 min, prior to the addition of either vehicle or various concentrations of a potential 5-oxo-ETE antagonist. Two min later, 5-oxo-ETE (10 nM) is added, followed 1 min later by digitonin (final concentration 0.1%). Data acquisition is terminated after a further 0.5 min. Fmax is determined from fluorescence measurements after the addition of digitonin, whereas Fmin is determined after determination of autofluorescence as described in the literature. A dissociation constant of 250 nM for the indo-1/Ca^++ complex is used to calculate [Ca^++]i. The % inhibition of 5-oxo-ETE-induced calcium mobilization by the antagonist is calculated as follows: Inhibition (%)=(1−(Caant/Ca^++veh))×100 where Caant is the increase in cytosolic calcium levels induced by 5-oxo-ETE (10 nM) following the addition of a potential antagonist, whereas Caveh is the response induced by 5-oxo-ETE following addition of vehicle alone.

[2] = Antagonist concentrations in blood (plasma) following oral administration; assay type: in vivo; conditions: cynomolgus monkeys
Description: Measurement of Antagonist Concentrations in Blood Following Oral Administration
Antagonists dissolved in ethanol (5 to 75 mg/ml) and added to 20 mM NaHCO3 pH 8.0. The resulting suspension (7 to 13 ml containing 10% ethanol) was administered by gavage (between 1 and 30 mg/kg) to cynomolgous monkeys (3 to 4 kg body weight). After different times (between 0.5 and 24 h as well as just prior to administration of antagonist) blood samples (1-2 ml) were taken and centrifuged to obtain plasma, which was frozen and transported to the laboratory as soon as the experiment was complete. Upon arrival at the laboratory, the plasma samples were thawed and the internal standards (1.5 μg), along with 2 volumes of MeOH, were added, the mixture vortexed, and then stored at −80° C. until analysis. The internal standards were structural analogs containing different numbers of methylene groups. Prior to analysis the plasma samples were warmed to room temperature, the above plasma samples containing MeOH were centrifuged and water was added to the supernatant to give a final concentration of 30%. The samples were then applied to a C18 SepPak cartridge (Waters Associates) that had previously been washed with MeOH followed by water (Powell, W. S., Prostaglandins, 1980. 20: p. 947-957). The extracts were analyzed by reversed-phase HPLC combined with automated precolumn extraction (Powell, W. S., Anal. Biochem., 1987. 164: p. 117-131). The stationary phase for the separation was a Novapak C18 column (4 μm particle size; 3.9×150 mm). The amounts of antagonists were determined on the basis of UV absorbance by comparing the peak area for the antagonist in question with that for the corresponding internal standard and correcting for any difference in extinction coefficient.
To examine the PK profiles of compounds V197 and V230 these compounds were administered to cynomolgus monkeys by oral gavage at a dose of 30 mg/kg. Plasma levels were measured following solid-phase extraction by reversed-phase high performance liquid chromatography (HPLC) after 0.5, 1, 2, 4, 8, 18, and 24 h using appropriate internal standards.

[3] = Metabolism of OXE antagonists by monkey liver microsomes; assay type: in vitro ADME, cynomolgous monkey
Description: Metabolism of OXE Antagonists by Monkey Microsomes
Microsomes (catalog number MKMC-PL) from cynomolgous monkey liver were obtained from Life Technologies. Antagonists (100 μM) were incubated for various times with liver microsomes (0.5 mg protein/ml) in PBS in the presence of NADPH (2 mM). After various times aliquots (0.1 ml) were removed and placed in a tube containing 0.36 ml ice-cold methanol. After addition of 0.74 ml of water along with 1 μg of an appropriate internal standard the samples were stored at −80° C. until analysis by reversed-phase HPLC.

[4] = test system: 5-oxo-ETE-induced dermal eosinophil infiltration; assay: Inhibition of 5-oxo-ETE-induced dermal eosinophil infiltration; assay type: in vivo; conditions: Rhesus monkeys, biopsy at 24 h
Description: Inhibition of 5-Oxo-ETE-Induced Dermal Eosinophil Infiltration
Rhesus monkeys (n=6) were injected intradermally with 5-oxo-ETE (5 μg) or vehicle. Compound 50 (5 or 10 mg/kg) or vehicle were administered by oral gavage both 1 h before and 7 h after injection of 5-oxo-ETE.
Skin biopsies were taken 24 h after administration of 5-oxo-ETE and sections from paraffin-embedded tissue were stained for eosinophil major basic protein, followed by counting of eosinophils.

[5] = molecular target: T1, OXE receptor; conditions: previously described values for V230 and its enantiomers; read-out: IC50, previously disclosed/reported; cited from earlier work
[6] = inhibition of calcium mobilization induced by 5-oxo-ETE (10 nM) in human granulocytes, bracketed figure in cell = n, read-out: IC50
[7] = oral gavage 30 mg/kg, over 24 h
[8] = 5-oxo-ETE-induced calcium mobilization
[9] = oral gavage 30 mg/kg, over 24 h, 30 mg/kg

In the case of `CC(CC(=O)O)CC(=O)c1c(CCCCCCc2ccccc2)n(C)c2ccc(Cl)cc12` (racemic) [Compound 15, 5-(5-chloro-1-methyl-2-(6-phenylhexyl)-1H-indol-3-yl)-3-methyl-5-oxopentanoic acid], the IC50 [1, 6] is reported as 0.18 nM and the “course of plasma levels / PK profile in words” value [2, 7] is reported as “declined much more slowly than the S-enantiomer”.
For `C[C@@H](CC(=O)O)CC(=O)c1c(CCCCCCc2ccccc2)n(C)c2ccc(Cl)cc12` (single isomer, unassigned) [Compound 61], the IC50 [1, 6] was 23 ± 2 nM and the “course of plasma levels / PK profile in words” value [2, 7] was “higher than those of the S-enantiomer and dropped much more slowly”.
In the case of `C[C@H](CC(=O)O)CC(=O)c1c(CCCCCCc2ccccc2)n(C)c2ccc(Cl)cc12` [Compound 46, (S)-5-(5-chloro-1-methyl-2-(6-phenylhexyl)-1H-indol-3-yl)-3-methyl-5-oxopentanoic acid], the IC50 [1, 6] is reported as 0.1 nM, the “course of plasma levels / PK profile in words” value [2, 7] is reported as “fell much more slowly” and the “plasma levels relative to V230 at later time points” value [2, 7] is reported as “at least 10 times higher”. The “difference in unmetabolized:metabolized ratio versus V230” value ([3]; 4 h, in favor of 46) was 4 fold.
With `C[C@H](CC(=O)O)CC(=O)c1c(C(O)CCCCCc2ccccc2)n(C)c2ccc(Cl)cc12` (stereo partly shown) [Compound 46M] the “antagonist activity / potency in words” value [1, 8] was 5-oxo-ETE-induced calcium mobilization inhibitors, the IC50 [1, 6] was 0.8 ± 0.3 nM and the “time to peak / maximal plasma levels” value ([2]; oral gavage 30 mg/kg (46M after administration of 46)) was 8 to 12 h.
For `C[C@H](CC(=O)O)CC(=O)c1c(CCCCCCc2cccc(Cl)c2)n(C)c2ccc(Cl)cc12` [Compound 50, (S)-5-(5-chloro-2-(6-(3-chlorophenyl)hexyl)-1-methyl-1H-indol-3-yl)-3-methyl-5-oxopentanoic acid], the IC50 ([1]; 5-oxo-ETE-induced calcium mobilization, read-out: potency (IC50) in the picomolar range) was about 0.008 nM, the IC50 [1, 6] was 0.0081 ± 0.0013 nM and the 5-Oxo-ETE-induced eosinophil infiltration ([4]; 5 mg/kg oral gavage 1 h before and 7 h after 5-oxo-ETE, p<0.005) was “significantly inhibited”. The 5-Oxo-ETE-induced eosinophil infiltration ([4]; 10 mg/kg oral gavage 1 h before and 7 h after 5-oxo-ETE, p<0.02) was “significantly inhibited”.
`CC(CC(=O)O)CC(=O)c1c(COCCCc2ccccc2)n(C)c2ccc(Cl)cc12` (stereo not shown) [Compound 83, 5-(5-chloro-1-methyl-2-((3-phenylpropoxy)methyl)-1H-indol-3-yl)-3-methyl-5-oxopentanoic acid] gave an IC50 [1, 6] of 0.7 nM.
With `CC(CC(=O)O)CC(=O)c1c(/C=C/CCCCc2ccccc2)n(C)c2ccc(Cl)cc12` (stereo not shown) [Compound 85, (E)-5-(5-chloro-1-methyl-2-(6-phenylhex-1-en-1-yl)-1H-indol-3-yl)-3-methyl-5-oxopentanoic acid] the IC50 [1, 6] was 1.93 ± 0.6 nM.
In the case of `CC(CC(=O)O)CC(=O)c1c(CCCCC=Cc2ccccc2)n(C)c2ccc(Cl)cc12` (stereo not shown) [Compound 94, 5-[5-Chloro-1-methyl-2-(6-phenyl-hex-5-enyl)-1H-indol-3-yl]-3-methyl-5-oxopentanoic acid], the IC50 [1, 6] is reported as 0.65 ± 0.36 nM.
Work on `C[C@H](CC(=O)O)CC(=O)c1c(CCCC/C=C\c2ccccc2)n(C)c2ccc(Cl)cc12` [Compound 95] yielded an IC50 [1, 6] of 0.62 ± 0.29 nM.
`C[C@@H](CC(=O)O)CC(=O)c1c(CCCC/C=C\c2ccccc2)n(C)c2ccc(Cl)cc12` [Compound 96] showed an IC50 [1, 6] of 5.5 nM.
With `C[C@H](CC(=O)O)CC(=O)c1c(CCCC/C=C/c2ccccc2)n(C)c2ccc(Cl)cc12` [Compound 97] the IC50 [1, 6] was 0.071 ± 0.024 nM.
For `C[C@@H](CC(=O)O)CC(=O)c1c(CCCC/C=C/c2ccccc2)n(C)c2ccc(Cl)cc12` [Compound 98], the IC50 [1, 6] was 1.1 ± 0.19 nM.
In the case of `CC(C)CCCCc1c(C(=O)CC(C)CC(=O)O)c2cc(Cl)ccc2n1C` (stereo not shown) [Compound V197, reference compound], the IC50 [1, 6] is reported as 20 nM and the “course of plasma levels / PK profile in words” value [2, 9] is reported as “dropped quite rapidly after 1 h; also recorded: inferior to that of compound V230”.
In the case of `CCC(C)CCCc1c(C(=O)CC(C)CC(=O)O)c2cc(Cl)ccc2n1C` (stereo not shown) [Compound V225, reference compound], the “antagonist activity / potency in words” value [1, 8] is reported as “somewhat less potent” and the IC50 [1, 6] is reported as 88 ± 26 nM.
With `CCCCCCc1c(C(=O)C[C@H](C)CC(=O)O)c2cc(Cl)ccc2n1C` [Compound V230, reference compound] the “extent of metabolism in plasma in words” value ([2]; oral gavage 30 mg/kg, after 8 h, compared with 46) was “much greater”, the “course of plasma levels / PK profile in words” value [2, 9] was “dropped quite rapidly after 1 h; also recorded: rapid decline” and the “extent of metabolism by microsomes in words” value ([3]; NADPH, up to 4 h, compared with 46) was “much greater”. For the same compound, the IC50 [5] was 26 ± 4 nM.
For `CCCCCC(O)c1c(C(=O)CC(C)CC(=O)O)c2cc(Cl)ccc2n1C` (stereo not shown) [Compound V230M, reference compound], the “antagonist activity / potency in words” value [1, 8] was “significantly reduced IC50” and the IC50 [1, 6] was 3300 ± 1100 nM.
With `CC(O)CCCCc1c(C(=O)CC(C)CC(=O)O)c2cc(Cl)ccc2n1C` (stereo not shown) [Met a V230 (ω-1)OH, reference compound] the IC50 [1, 6] was 1600 ± 400 nM and the “times less potent than compound V230 in blocking 5-oxo-ETE-induced calcium mobilization in neutrophils” value [1] was “about 100 times”.
For `CC(=O)CCCCc1c(C(=O)CC(C)CC(=O)O)c2cc(Cl)ccc2n1C` (stereo not shown) [Met b V230 (ω-1)oxo, reference compound], the IC50 [1, 6] was 1900 ± 500 nM and the “times less potent than compound V230 in blocking 5-oxo-ETE-induced calcium mobilization in neutrophils” value [1] was “about 100 times”.
For `CC(CC(=O)O)CC(=O)c1c(CCCCCCO)n(C)c2ccc(Cl)cc12` (stereo not shown) [V230 ω-OH, reference compound], the IC50 [1, 6] was 260 ± 30 nM.
